Experiment: gradient 5% acetonitrile 3 min, to 50% in 2 min, to 85% in 15 min, held 3 min, 100 µL/min
Settings: column: Zorbax Extend-C18 2.1 x 50 mm; eluents: water / acetonitrile, 0.1% formic acid
Outline: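 Pure standards were analyzed in mixtures of ~100 molecules using HPLC coupled to a quadrupole time-of-flight mass spectrometer, in both positive and negative ionization mode. Separation used a Zorbax Extend-C18 column (2.1 × 50 mm, 1.8 μm) at 100 μL/min, with water and acetonitrile each containing 0.1% formic acid. Dead and dwell volumes were 40 μL and 900 μL, and data were collected over 3 months. Retention time was read from computationally picked adduct peaks, each inspected manually.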

Structure (SMILES) | RP-LC retention time
COCc1cc(=O)n(CC(=O)Nc2ccc(Cl)cc2)c(N)n1 | 641 s
Cc1cccc(OCC(=O)Nc2c(C(=O)N3CCN(c4ccccn4)CC3)oc3ccccc23)c1 | 800 s
O=C1NC2(CCN(C(=O)Nc3ccc4c(c3)OCCO4)CC2)Oc2ccccc21 | 736 s
O=C(Nc1cnc(-c2cccnc2)nc1)C1CCC1 | 659 s
Cc1ccc(CN2C[C@]34C=C[C@H](O3)[C@@H](C(=O)NCc3ccccc3)[C@H]4C2=O)cc1 | 822 s
COc1cc(NC(=O)N2CC(C)Sc3ccccc32)cc(OC)c1OC (centres undefined) | 961 s
CCc1cc(=O)n(CC(=O)Nc2ccc(Cl)cc2)c(N)n1 | 618 s
O=C(Cc1ccsc1)NCCC1CCN(C(=O)Nc2ccccc2)CC1 | 792 s
CCc1nc2cc(-c3noc(-c4ccc(OC)cc4C)n3)ccc2o1 | 1270 s
COCCN1C(=O)[C@H]2CN(Cc3cccc(C(F)(F)F)c3)C[C@H]2C1=O | 694 s
Cc1ccc(C)c2c(=O)c3c([nH]c12)CCN(CC(=O)Nc1ccc(F)cc1F)C3 | 648 s
O=C(c1cccc(Cl)c1)N1CCC(n2c(-c3ccco3)nc3cccnc32)C1 (centres undefined) | 776 s
Cn1nnnc1C1CCCN(C(=O)Nc2ccc3c(c2)OCCO3)C1 (centres undefined) | 661 s
Cc1cc(=O)n(CC(=O)N(C)c2ccccc2)c(N2CCCC2)n1 | 625 s
C/C(=C\c1csc(C)n1)C1C[C@@H]2O[C@@H]2CCC[C@H](C)[C@H](O)[C@@H](C)C(=O)C(C)(C)[C@@H](O)CC(=O)O1 (some centres undefined) | 874 s
Cn1c(=O)c2c(ncn2CC(=O)N2CCC(CCOc3ccc(F)cc3)C2)n(C)c1=O (centres undefined) | 748 s
Cn1cc(-c2nc(C(=O)N3CCN(c4ccccc4)CC3)cs2)c2cccnc21 | 911 s
CC(C)c1nnc(-c2ccc(S(=O)(=O)NC3CCCCCC3)o2)o1 | 985 s
Cc1ccc(Nc2ccc(NC(=O)C3CCCC3)cc2)nn1 | 566 s
CCCN1C(=O)COc2ccc(-c3noc(-c4ccc(OC)c(OC)c4)n3)cc21 | 1110 s
CCCC(=O)N1CCN(c2ccc(=O)n(-c3ccc(Cl)cc3)n2)CC1 | 778 s
Cc1ccc(NC(=O)N2[C@H]3CC[C@@H]2c2cncnc2C3)cc1F | 738 s

Structure (SMILES) | RP-LC retention time
COc1ccc(-c2ccnn2-c2ccc(SCc3ccccc3C)nn2)cc1 | 1390 s
Cc1cc(N2CCCC2)nc(N2CCN(C(=O)CCC3CCCCC3)CC2)n1 | 825 s
CCCn1cc(C2=CCN(C(=O)Nc3cccc(Cl)c3F)CC2)c2cccnc21 | 773 s
Cc1nc2cc(N3CCCC(C(=O)N4CCCCCC4)C3)cnc2nc1C (centres undefined) | 653 s
O=C(COc1ccc(F)cc1)Nc1nc(CN2CCc3ccccc3C2)cs1 | 608 s
CC(C)C(=O)NCCc1csc(C2CCCN(C(=O)C(C)(C)C)C2)n1 (centres undefined) | 734 s
CCn1ncc(N2CCCC(CC(=O)N3CCC4(CC3)OCCO4)C2)cc1=O (centres undefined) | 646 s
CCc1ccc(CNC(=O)Cc2nnc(-c3cnccn3)o2)cc1 | 739 s
Cc1ccc(NC(=O)NCC2CCOCC2)cc1C | 726 s
O=C(NCc1ccc(Cl)cc1)c1c(O)c2cccnc2[nH]c1=O | 1000 s
Cc1ccc(C)c2sc(N(C)CC(=O)NCCSc3nncn3C)nc12 | 719 s
COc1ccc(C2CC(=O)c3cnc(Nc4nc(C)c5cc(C)c(C)cc5n4)nc3C2)cc1 (centres undefined) | 775 s
COCCNC(=O)C1(C)CCC(=O)N1CCc1c[nH]c2ccccc12 (centres undefined) | 653 s
CC1CCN(S(=O)(=O)c2ccc3nn(Cc4ccc(F)cc4)c(=O)n3c2)CC1 | 1020 s
Cc1cccc2nc(-c3ccc(N(C)C)cc3)c(Nc3ccc4c(c3)OCO4)n12 | 747 s
COc1ccc(C)cc1NC(=O)C1CC(=O)N(c2ccc3c(c2)CCN3C(=O)C2CC2)C1 (centres undefined) | 836 s
Cn1nccc1-c1cccc(-c2noc(/C=C/c3ccccc3)n2)c1 | 1160 s
COc1ccc(C(=O)N(CN2CCCC2=O)c2nccs2)cc1OC | 647 s
Cc1ccc(NC(=O)N2CC(c3nc(C(C)C)nn3C)C2)cc1 | 689 s
CCN1C(=O)COc2ccc(-c3noc(-c4ccc(Cl)cc4)n3)cc21 | 1220 s
CCOc1ccc(NC(=O)C2CCCN2S(=O)(=O)c2cc3c(cc2C)NC(=O)CO3)cc1 (centres undefined) | 770 s

Next, values leading:

RP-LC retention time | Structure (SMILES)
884 s | COc1ccc(Br)cc1CNC(=O)c1ccc2c(c1)NC(=O)C1CCCCN21 (centres undefined)
1130 s | O=S(=O)(c1ccc2c(c1)-c1oncc1CO2)N1CCN(C(c2ccccc2)c2ccccc2)CC1
755 s | COC(=O)c1ncn2c1C(=O)N(Cc1ccc(Cl)cc1)C(C)(C(=O)NCc1ccccc1)C2 (centres undefined)
666 s | Cc1cc(N2CCN(C(=O)Nc3ccc(C)c(C)c3)CC2)nc(N2CCOCC2)n1
889 s | O=C(NCc1nc(-c2ccc(N3CCCC3)cc2)no1)c1ccco1
881 s | COC(=O)c1ccc(C2CC(=O)NC3=C2C(=O)CC(c2ccccc2Cl)C3)cc1 (centres undefined)
1010 s | Cc1cc(=O)n(CC(=O)N2CCN(c3ccc(F)cc3)CC2)c(-c2ccc(F)cc2)n1
596 s | CCOC(=O)c1c(C)oc2nc(C)nc(NCCCN3CCN(c4ccccc4OC)CC3)c12
596 s | CCOc1ccc(CN2CCN(C(=O)c3ccc(C#N)cc3)CC2)cn1
1020 s | Cc1ccc(C)c(S(=O)(=O)N2CCc3c(c(-c4nnc(-c5ccccc5)o4)nn3C)C2)c1
1120 s | CCCCn1cc(S(=O)(=O)N2CCN(c3ccccc3)CC2)c2cccnc21
1230 s | Cc1cc(C)c(S(=O)(=O)N2CCc3nc(-c4ccccc4)ncc3C2)cc1C
836 s | COC[C@@H]1CN(S(=O)(=O)Cc2ccccc2)C[C@H]1c1nc(C)no1
594 s | COc1ccccc1CCC(=O)N1CCn2cnnc2C1
641 s | O=C(CCN1C(=O)c2cccc3cccc(c23)C1=O)NC1CCS(=O)(=O)C1 (centres undefined)
898 s | CC(C)C(=O)n1nc(-c2ccccc2Cl)nc1N
735 s | COc1ccc(C(=O)N2CCC3(CC2)NC(=O)c2ccc(Cl)cc2N3)cc1
1170 s | Cc1cccc(C)c1NC(=O)C1CCCN(c2nc3ccccc3nc2C(F)(F)F)C1 (centres undefined)
856 s | CCC(C)NC(=O)Cc1cccn1-c1ccc(F)cc1 (centres undefined)
603 s | CC(=O)NCCc1csc(C2CCCN(C(=O)C3CCOC3)C2)n1 (centres undefined)
742 s | Cc1ccc(-c2cc3c(=O)n(Cc4noc(CN5CCC(C)CC5)n4)ccn3n2)c(C)c1
658 s | COc1cccc(NC(=O)Cn2c(N3CCCCC3)nc(C)cc2=O)c1
1140 s | CSc1ccc(-c2noc(CN3C(=O)C(C)Oc4ccccc43)n2)cc1 (centres undefined)

RP-LC retention time | Structure (SMILES)
781 s | Cc1noc(-c2ccc(OC3CN(C(=O)c4ccoc4)C3)cc2)n1
672 s | Cc1ccc(-c2cn3cccc(C)c3n2)cc1NS(=O)(=O)c1ccccc1
837 s | COc1ccc(NC(=O)N(C)CCc2noc(COc3ccc(F)cc3)n2)c(OC)c1
821 s | COC(=O)c1ccc(C(=O)Nc2cccc3c(OC)cccc23)cc1
882 s | COc1ccc(OC)c(NC(=O)N2CC=C(c3cn(C)c4ncccc34)CC2)c1
686 s | CN(C)CCCNC(=O)C1CCN(c2nc3ccc(-c4ccc(F)cc4)nc3s2)CC1
808 s | O=C(CN1CCN(Cc2ccccc2F)C1=O)NCc1ccc(F)cc1
1200 s | Cc1ccc(NC(=O)C2CCCN(c3nccnc3Sc3ccc(C)cc3)C2)cc1 (centres undefined)
585 s | O=C(O)C1CCN(S(=O)(=O)C2CC2)CC1
820 s | CC(=O)N1c2ccccc2CC1c1nc(C2CC2)no1 (centres undefined)
678 s | CC(C)N(CC[C@H](c1ccccc1)c1cc(CO)ccc1O)C(C)C
659 s | O=C(NCC1CCS(=O)(=O)C1)c1nc2ccccc2s1 (centres undefined)
1280 s | Cc1cccc(-c2noc(Cn3cnc4c(cnn4-c4ccc(C)c(Cl)c4)c3=O)n2)c1
660 s | COc1ccc(C2=NC3(CCCCC3)N(CC(=O)Nc3cc(OC)cc(OC)c3)C2=O)cc1
1110 s | CCOc1ccccc1NC(=O)Cn1cnc2c(sc3nc(-c4ccccc4)ccc32)c1=O
820 s | CCCn1cc(CCNC(=O)c2cc(F)cc(F)c2)c2cccnc21
754 s | Cc1ccc2nc(-c3ccccc3F)c(Nc3ccc(Cl)cc3)n2c1
866 s | COc1cccc(NC(=O)Cn2nc3c(Oc4ccccc4C)nccn3c2=O)c1
808 s | O=C(NCc1ccco1)c1c2c(nc3ccccc13)C(=O)N(C1CCCCC1)C2
817 s | CCOC(=O)CC(=O)Nc1nnc(SCc2nnc(-c3ccccc3C)o2)s1
993 s | COc1ccc(NC(=O)Cn2cccc2-c2nnc(-c3ccccc3)o2)c(OC)c1
698 s | O=C(Cc1nnc(-c2ccccc2)o1)N1CCSCC1
1120 s | Cc1cc(-c2c(C)sc(C)c2S(=O)(=O)NC2CCCc3ccccc32)n[nH]1 (centres undefined)

From the METLIN SMRT retention time set (Domingo-Almenara et al. 2019)
